US20090099158A1, “TETRAHYDROISOQUINOLINE COMPOUNDS AS MODULATORS OF THE HISTAMINE H3 RECEPTOR” (priority 2007, published 2009)

biological target: T1, cloned human H3 receptors (Homo sapiens, UniProt Q9Y5N1); assay: H3 Receptor Binding (Human); settings: cloned human H3 receptors stably expressed in SK-N-MC cells; average of the results obtained
T1 construct: expressed in transfected cells; host or cells: SK-N-MC cells
Description: Binding of compounds to the cloned human H3 receptors, stably expressed in SK-N-MC cells, was performed as described by Barbier, A. J. et al. (Br. J. Pharmacol. 2004, 143(5), 649-661). Data for compounds tested in this assay are presented in Table 1 as an average of the results obtained.

T1 sequence (Q9Y5N1 whole entry): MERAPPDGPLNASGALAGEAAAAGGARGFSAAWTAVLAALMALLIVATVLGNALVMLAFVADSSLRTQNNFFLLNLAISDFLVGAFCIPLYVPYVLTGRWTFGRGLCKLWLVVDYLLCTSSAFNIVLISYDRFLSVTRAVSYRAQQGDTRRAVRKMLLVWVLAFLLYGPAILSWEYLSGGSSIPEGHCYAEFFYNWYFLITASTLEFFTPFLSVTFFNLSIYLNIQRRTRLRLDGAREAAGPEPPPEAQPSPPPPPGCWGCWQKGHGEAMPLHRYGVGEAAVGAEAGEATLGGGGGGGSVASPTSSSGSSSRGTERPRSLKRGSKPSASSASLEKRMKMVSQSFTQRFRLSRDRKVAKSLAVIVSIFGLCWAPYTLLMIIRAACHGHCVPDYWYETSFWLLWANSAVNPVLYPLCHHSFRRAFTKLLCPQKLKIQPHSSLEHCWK

SMILES	Ki [nM]
O=C(c1ccc2c(c1)CCN(C(=O)C1CCCCC1)C2)N1CC2CCN(C3CCC3)C2C1 (stereo not drawn) [Example 165, (1-Cyclobutyl-hexahydro-pyrrolo[3,4-b]pyrrol-5-yl)-(2-cyclohexanecarbonyl-1,2,3,4-tetrahydro-isoquinolin-6-yl)-methanone]	300
O=C(c1ccc2c(c1)CCN(Cc1ccc(C(F)(F)F)cc1)C2)N1CCN(C2CC2)CC1 [Example 23, (4-Cyclopropyl-piperazin-1-yl)-[2-(4-trifluoromethyl-benzyl)-1,2,3,4-tetrahydro-isoquinolin-6-yl]-methanone]	114
COc1ccc(C(=O)N2CCc3cc(C(=O)N4CCC[C@H]4CN4CCCC4)ccc3C2)cc1 [Example 60, (S)-(4-Methoxy-phenyl)-[6-(2-pyrrolidin-1-ylmethyl-pyrrolidine-1-carbonyl)-3,4-dihydro-1H-isoquinolin-2-yl]-methanone]	21
CO[C@H]1CC[C@@H](C(=O)N2CCc3cc(C(=O)N4CCCN(C5CCC5)CC4)ccc3C2)CC1 [Example 148, cis-[6-(4-Cyclobutyl-[1,4]diazepane-1-carbonyl)-3,4-dihydro-1H-isoquinolin-2-yl]-(4-methoxy-cyclohexyl)-methanone]	1
CC(C)N1CCCN(C(=O)c2ccc3c(c2)CCN(C(=O)C2CCCCC2)C3)CC1 [Example 162, Cyclohexyl-[6-(4-isopropyl-[1,4]diazepane-1-carbonyl)-3,4-dihydro-1H-isoquinolin-2-yl]-methanone]	4
O=C(c1ccc2c(c1)CCN(Cc1ccc(Cl)c(Cl)c1)C2)N1CCN(C2CCC2)CC1 [Example 16, (4-Cyclobutyl-piperazin-1-yl)-[2-(3,4-dichloro-benzyl)-1,2,3,4-tetrahydro-isoquinolin-6-yl]-methanone]	18
O=C(c1cccc(Cl)c1)N1CCc2cc(C(=O)N3CCC[C@H]3CN3CCCC3)ccc2C1 [Example 51, (S)-(3-Chloro-phenyl)-[6-(2-pyrrolidin-1-ylmethyl-pyrrolidine-1-carbonyl)-3,4-dihydro-1H-isoquinolin-2-yl]-methanone]	14
CN1CCC(N(C)C(=O)c2ccc3c(c2)CCN(C(=O)C2CCCCC2)C3)C1 (stereo not drawn) [Example 161, 2-Cyclohexanecarbonyl-1,2,3,4-tetrahydro-isoquinoline-6-carboxylic acid methyl-(1-methyl-pyrrolidin-3-yl)-amide]	421
O=C(c1ccc2c(c1)CCN(C1CCCC1)C2)N1CCOCC1 [Example 172, (2-Cyclopentyl-1,2,3,4-tetrahydro-isoquinolin-6-yl)-morpholin-4-yl-methanone]	2800
CN(C)[C@@H]1CCN(C(=O)c2ccc3c(c2)CCN(C(=O)C2CCCCC2)C3)C1 [Example 155, (R)-Cyclohexyl-[6-(3-dimethylamino-pyrrolidine-1-carbonyl)-3,4-dihydro-1H-isoquinolin-2-yl]-methanone]	650
CC(C)(C)OC(=O)N1CCc2cc(C(=O)N3CCN4CCCCC4C3)ccc2C1 (stereo not drawn) [Example 4, 6-(Octahydro-pyrido[1,2-a]pyrazine-2-carbonyl)-3,4-dihydro-1H-isoquinoline-2-carboxylic acid tert-butyl ester]	28
N#Cc1cccc(C(=O)N2CCc3cc(C(=O)N4CCC[C@H]4CN4CCCC4)ccc3C2)c1 [Example 52, (S)-3-[6-(2-Pyrrolidin-1-ylmethyl-pyrrolidine-1-carbonyl)-3,4-dihydro-1H-isoquinoline-2-carbonyl]-benzonitrile]	15
O=C(C1CCCCC1)N1CCc2cc(CN3CCCN(C4CCC4)CC3)ccc2C1 [Example 171, [6-(4-Cyclobutyl-[1,4]diazepan-1-ylmethyl)-3,4-dihydro-1H-isoquinolin-2-yl]-cyclohexyl-methanone]	23
O=C(c1ccc2c(c1)CCNC2)N1CCCCC1 [Example 6, Piperidin-1-yl-(1,2,3,4-tetrahydro-isoquinolin-6-yl)-methanone]	3000
CCCN1CCc2cc(C(=O)N3CCN4CCCCC4C3)ccc2C1 (stereo not drawn) [Example 181, (Octahydro-pyrido[1,2-a]pyrazin-2-yl)-(2-propyl-1,2,3,4-tetrahydro-isoquinolin-6-yl)-methanone]	2
CC(C)N1CCN(C(=O)c2ccc3c(c2)CCN(C(=O)c2ccc(O)cc2)C3)CC1 [Example 107, [2-(4-Hydroxy-benzoyl)-1,2,3,4-tetrahydro-isoquinolin-6-yl]-(4-isopropyl-piperazin-1-yl)-methanone]	34
Cc1ccc(C(=O)N2CCc3cc(C(=O)N4CCN(C(C)C)CC4)ccc3C2)cc1 [Example 109, (4-Isopropyl-piperazin-1-yl)-[2-(4-methyl-benzoyl)-1,2,3,4-tetrahydro-isoquinolin-6-yl]-methanone]	37
CC(C)N1CCc2cc(C(=O)N3CCCCC3)ccc2C1 [Example 173, (2-Isopropyl-1,2,3,4-tetrahydro-isoquinolin-6-yl)-piperidin-1-yl-methanone]	1800
O=C(c1ccc2c(c1)CCN(C(=O)C1CCCCC1)C2)N1CC2CN(C3CCC3)CC2C1 (stereo not drawn) [Example 163, (5-Cyclobutyl-hexahydro-pyrrolo[3,4-c]pyrrol-2-yl)-(2-cyclohexanecarbonyl-1,2,3,4-tetrahydro-isoquinolin-6-yl)-methanone]	170
O=C(c1ccc2c(c1)CCNC2)N1CCOCC1 [Example 7, Morpholin-4-yl-(1,2,3,4-tetrahydro-isoquinolin-6-yl)-methanone]	4000
O=C(c1ccc2c(c1)CN(C(=O)C1CCCC1)CC2)N1CCCN(C2CCC2)CC1 [Example 37, [7-(4-Cyclobutyl-[1,4]diazepane-1-carbonyl)-3,4-dihydro-1H-isoquinolin-2-yl]-cyclopentyl-methanone]	1

Further lines, results first:

Ki [nM]	SMILES
13	O=C(c1ccc2c(c1)CCN(C(=O)c1ccc(Cl)c(Cl)c1)C2)N1CCN(C2CCC2)CC1 [Example 114, (4-Cyclobutyl-piperazin-1-yl)-[2-(3,4-dichloro-benzoyl)-1,2,3,4-tetrahydro-isoquinolin-6-yl]-methanone]
1	O=C(c1ccc2c(c1)CCN(C(=O)c1ccc(Cl)cc1Cl)C2)N1CCCN(C2CCC2)CC1 [Example 143, [6-(4-Cyclobutyl-[1,4]diazepane-1-carbonyl)-3,4-dihydro-1H-isoquinolin-2-yl]-(2,4-dichloro-phenyl)-methanone]
22	Cc1ccc(C(=O)N2CCc3cc(C(=O)N4CCN(C5CCC5)CC4)ccc3C2)cc1 [Example 113, (4-Cyclobutyl-piperazin-1-yl)-[2-(4-methyl-benzoyl)-1,2,3,4-tetrahydro-isoquinolin-6-yl]-methanone]
38	Cc1ccc(C(=O)N2CCc3cc(C(=O)N4CCN5CCCCC5C4)ccc3C2)cc1 (stereo not drawn) [Example 97, [2-(4-Methyl-benzoyl)-1,2,3,4-tetrahydro-isoquinolin-6-yl]-(octahydro-pyrido[1,2-a]pyrazin-2-yl)-methanone]
91	O=C(c1ccc2c(c1)CCN(C(=O)c1ccc(Cl)cc1)C2)N1CCN(C2CCCC2)CC1 [Example 69, [2-(4-Chloro-benzoyl)-1,2,3,4-tetrahydro-isoquinolin-6-yl]-(4-cyclopentyl-piperazin-1-yl)-methanone]
19	O=C(c1ccc2c(c1)CCN(C(=O)c1ccoc1)C2)N1CCN(C2CCC2)CC1 [Example 44, [6-(4-Cyclobutyl-piperazine-1-carbonyl)-3,4-dihydro-1H-isoquinolin-2-yl]-furan-3-yl-methanone]
8	O=C(c1ccc2c(c1)CCN(C(=O)c1ccc(Cl)cc1Cl)C2)N1CCN(C2CCC2)CC1 [Example 118, [6-(4-Cyclobutyl-piperazine-1-carbonyl)-3,4-dihydro-1H-isoquinolin-2-yl]-(2,4-dichloro-phenyl)-methanone]
109	O=C(c1ccc2c(c1)CCN(C(=O)c1cccc(F)c1)C2)N1CCN(C2CCCCC2)CC1 [Example 73, (4-Cyclohexyl-piperazin-1-yl)-[2-(3-fluoro-benzoyl)-1,2,3,4-tetrahydro-isoquinolin-6-yl]-methanone]
165	CC(C)(C)OC(=O)N1CCc2cc(C(=O)N3CCN(C4CCCCC4)CC3)ccc2C1 [Example 3, 6-(4-Cyclohexyl-piperazine-1-carbonyl)-3,4-dihydro-1H-isoquinoline-2-carboxylic acid tert-butyl ester]
20	O=C(c1ccccc1)N1CCc2cc(C(=O)N3CCN4CCCCC4C3)ccc2C1 (stereo not drawn) [Example 99, (2-Benzoyl-1,2,3,4-tetrahydro-isoquinolin-6-yl)-(octahydro-pyrido[1,2-a]pyrazin-2-yl)-methanone]
100	O=C(c1ccc2c(c1)CCN(C(=O)c1cccc(Cl)c1)C2)N1CCN(C2CCCCC2)CC1 [Example 76, [2-(3-Chloro-benzoyl)-1,2,3,4-tetrahydro-isoquinolin-6-yl]-(4-cyclohexyl-piperazin-1-yl)-methanone]
55	Cc1ccccc1C(=O)N1CCc2cc(C(=O)N3CCN(C4CCCCC4)CC3)ccc2C1 [Example 82, (4-Cyclohexyl-piperazin-1-yl)-[2-(2-methyl-benzoyl)-1,2,3,4-tetrahydro-isoquinolin-6-yl]-methanone]
10	O=C(c1ccc2c(c1)CCN(C(=O)c1ccccc1Cl)C2)N1CCN(C2CCC2)CC1 [Example 42, (2-Chloro-phenyl)-[6-(4-cyclobutyl-piperazine-1-carbonyl)-3,4-dihydro-1H-isoquinolin-2-yl]-methanone]
21	O=C(c1ccc2c(c1)CCN(C(=O)c1ccccc1Cl)C2)N1CCN2CCCCC2C1 (stereo not drawn) [Example 89, [2-(2-Chloro-benzoyl)-1,2,3,4-tetrahydro-isoquinolin-6-yl]-(octahydro-pyrido[1,2-a]pyrazin-2-yl)-methanone]
38	CC(C)(C)c1ccc(C(=O)N2CCc3cc(C(=O)N4CCN5CCCCC5C4)ccc3C2)cc1 (stereo not drawn) [Example 98, [2-(4-tert-Butyl-benzoyl)-1,2,3,4-tetrahydro-isoquinolin-6-yl]-(octahydro-pyrido[1,2-a]pyrazin-2-yl)-methanone]
